According to US11419843B2, “Small molecule BCL-2 functional converters as cancer therapeutics” (Oregon State University, priority 2016, dated 2022):

What was measured:
[1] = system: MCF-7/Vector and MCF-7/Bcl-2 cells; assay: Viability of MCF-7 cells with high and low Bcl-2; assay type: cell-based, human; conditions: 10% FBS
Procedure: MDA-MB-231 and MCF-7 breast cancer cell lines stably overexpressing Bcl-2 were generated via electroporation and subsequent clonal expansion in G418-containing media. MDA-MB-231 cell clones with sufficiently high expression of Bcl-2 (MDA-MB-231/Bcl-2) determined by western blotting was selected for screening along with their vector controls (MDA-MB-231/Vector). Similarly MCF-7 cells clones were selected for characterization of lead molecules.
Cell viability was determined using CellTiter Glo Luminescent Cell Viability Assay (Promega, Madison, Wis.) as per manufacturer instructions. DAPI stain was used to assess apoptosis. Colony forming assays were performed as described previously.

LMD231-Luc cells = assay: Breast cancer lung metastasis model (tail vein, bioluminescence); assay type: in vivo, nude mice; conditions: for Growth of lung metastasis (bioluminescence): intraperitoneal, end of 7 weeks
Procedure: FIG. 19A About 200,000 LMD-231 cells stably expressing luciferase was injected into the tail vein of 6 week old nude mice. Lung metastasis was formed in 2 weeks. Mice were treated with 100 mg/kg BFC1108 4 times a week by intraperitoneal route. Bioluminescent imaging was performed once a week and quantified.
About 200,000 LMD-231 cells stably expressing luciferase was injected into the tail vein of 6 week old nude mice. Lung metastasis was detectable in 2 weeks after injection of tumor cells. Mice were treated with 50 mg/kg of BFC1103 6 times a week by intraperitoneal injections. Bioluminescent imaging was performed once a week and quantified. * P<0.05.
For the lung metastatic study, 5 week old Nude mice were procured from Jackson Labs. About 200,000 LMD231-Luc2 cells in PBS were injected into the tail vein. Lung metastasis could be detected in 2 weeks' time. Treatments with BFC1108 at 100 mg/kg, 4 times a week, were started a day after the cells were injected. Body weight was measured twice a week. Bioluminescence was measured once a week while the mice are under anesthesia. At the end of the study mice were euthanized and lung tissues were dissected and fixed for immunohistochemical analysis.
For experimental lung metastases model, LMD-231 cells derived from MDA-MB-231 that repeatedly colonized lungs were used23. Lenti viral particles with luciferase expression vector (GenTarget, San Diego, Calif.) was used to transduce LMD-231 cells to obtain high luciferase expressing clone after clonal expansion. The stable expression of luciferase was monitored for 7 weeks in vitro before using in animal experiments.
All animal experiments were performed as per approved protocols from the IACUC at Oregon State University. 5 week old nude mice were procured from Jackson Labs (Bar Harbor, Me.). Treatments were started a day after the LMD-Luc cells (200,000 cells suspended in DPBS) were injected into the lateral tail vein. Body weight was measured twice a week. Bioluminescence was measured twice a week using IVIS Lumina II (PerkinElmer, Waltham, Mass.) as per manufacturer instructions, while the mice were under anesthesia.

[2] = system: LNCaP, HepG2, H460, A375, U251, ZR-75-1 cells; assay: Viability of a range of cancer cell types; assay type: cell-based, human
Excerpt: Cell titer glo assay (Promega, CA) was used for assessing viability as per manufacturer instructions. DAPI stain was used to assess apoptosis.

[3] = system: H460 parental and derived paclitaxel resistant cells; assay: Viability of H460 parental and paclitaxel resistant cells; assay type: cell-based, human; conditions: for Viability of H460 resistant vs parental line: 72 hours
Procedure: Percentage viability relative to vehicle treatment was calculated. Representative of three independent assays conducted in triplicate.
FIG. […] Percentage viability relative to vehicle treatment. Representative of three independent assays conducted in triplicate.
Representative of three independent assays conducted in triplicate.
Cell lines were obtained from ATCC and maintained according to manufacturer's instructions. The human lung cancer cell line NCI-H460, H69AR (ATCC) were cultured in RPMI medium (Corning) containing 10% FBS. The human breast cancer cell line MDA-MB-231 was cultured in DMEM medium (Corning) containing 10% FBS. All cell lines were maintained at 5% CO2 and 37° C. Paclitaxel resistant H460 cells were derived by treating cells once a week over 6 weeks, initially with 1 nM paclitaxel and then increasing dose incrementally up to 100 nM. Once resistance was confirmed, paclitaxel was withdrawn from the cells. Resistance to paclitaxel was maintained without presence of paclitaxel measured up to 2 months. A parental line was maintained for a similar number of passages as the resistant line. All experiments were performed using cells that had not been treated with paclitaxel in at least three passages.
Cells of interest were plated at 2000 cells per well in 96-well black tissue culture plate and allowed to adhere to the plate overnight. Viability assays were performed using 10% serum medium unless otherwise stated. Drugs were diluted in supplemented tissue culture medium and added at increasing concentrations, with DMSO as a vehicle control. […] Luminescence was measured using Tropix TR717 Microplate luminometer. Percentage of viable cells is relative to vehicle (100%). As a complementary viability assay, eBioscience Fixable Viability Dye eFluor 660(65-0864) was used to stain dead cells and analyzed using flow cytometry.

MDA-MB-231/Bcl-2 cells = assay: Orthotopic breast cancer xenograft in mammary fat pad; assay type: in vivo, NOD SCID mice; conditions: 100 mg/kg twice a week; for Immunohistochemistry of tumor sections (TUNEL, Bcl-2 BH3, activated Bax, cleaved caspase-3): end of the study; for Tumor growth: intraperitoneal
Procedure: […] were implanted in the mammary fat pad of NOD SCID mice (N=10). Once palpable tumors were formed MTX was treated at 100 mg/kg twice a week by intraperitoneal injections. Tumor measurements were made with digital calipers twice a week.
106 MDA-MB-231/Bcl-2 cells were implanted in the mammary fat pad of NOD. SCID mice (n=8 per group). Once palpable tumors formed, mice were treated with 100 mg/kg BFC1108 twice a week by i.p. route. Tumor measurements were made with digital calipers twice a week.
All animal experiments were performed as per approved protocols from the IACUC at Oregon State University. 5 week old NOD.SCID mice were procured from Jackson Labs. Treatments were started once palpable tumors were detected. MTX was treated twice a week at 100 mg/kg dose. Body weight was measured twice a week. Tumor burden was measured twice a week using digital calipers.
All animal experiments were performed as per approved protocols from the IACUC at Oregon State University. For the mammary fat pad xenograft study, 5 week old NOD.SCID mice were procured form Jackson labs. About 10^6 cells were injected into both the lower flanks of mammary fat pad in PBS. Palpable tumors were detected in 4 weeks after which treatment with BFC1108 at 100 mg/kg twice a week continued till end of the study. Tumor mass was measured using digital calipers twice a week along with body weight. At the end of the study mice were euthanized and tumors were collected for immunohistochemical analysis.

[4] = system: MDA-MB-231 cells with or without the Bcl-2 expression vector; assay: Apoptosis in MDA-MB-231 cells (DAPI, annexin V staining); assay type: cell-based, human; conditions: 10% FBS
[5] = system: MEF Bcl-2−/− and WT MEF cells; assay: Colony forming ability of MEFs; assay type: cell-based, mouse; conditions: 10 μM, 10% FBS, 48 h
[6] = mice; cited from earlier work

Structure (SMILES) | Bcl-2 dependent effect on viability, MCF-7/Bcl-2 vs MCF-7/Vector ([1]; 10 μM, 24 h) | H&E analysis of lung tissue (LMD231-Luc cells; 50 mg/kg, 6 days per week) | Ki67 staining of lung tissue (LMD231-Luc cells; 50 mg/kg, 6 days per week) | Growth of lung metastasis (bioluminescence) (LMD231-Luc cells; 50 mg/kg, 6 days per week) | Viability of various cancer cell lines ([2]; 24 h, 10% FBS) | Viability of H460 resistant vs parental line [3] | Immunohistochemistry of tumor sections (TUNEL, Bcl-2 BH3, activated Bax, cleaved caspase-3) (MDA-MB-231/Bcl-2 cells) | Tumor growth (MDA-MB-231/Bcl-2 cells) | Bcl-2 dependent effect on viability, MCF-7/Bcl-2 vs MCF-7/Vector ([1]; 48 h) | Ki-67 staining of lung tissue (LMD231-Luc cells; 100 mg/kg, 4 times a week) | Growth of lung metastasis (bioluminescence) (LMD231-Luc cells; 100 mg/kg, 4 times a week) | Viability of a range of cancer cell types ([2]; 48 h, 10% serum) | Apoptosis by annexin V staining ([4]; 10 μM, 48 h) | Colony forming ability of MEF Bcl-2−/− cells [5] | Colony forming ability of WT MEFs [5] | Cell viability, combination with paclitaxel ([3]; paclitaxel 1 nM and BFC1108 20 μM, 24 hours) | half-life [6] | Apoptosis by nuclear condensation and fragmentation (DAPI) ([4]; 10 μM) | Apoptosis by annexin V staining ([4]; indicated concentrations)
CCCCc1ccc(NC(=O)CN(Cc2ccccc2)S(C)(=O)=O)cc1 [BFC1103, N-2-benzyl-N-1-(4-butylphenyl)-N-2-(methylsulfo-nyl) glycinamide] | reduced the viability of MCF-7 cells with high Bcl-2 levels, compared to Bcl-2 low expressing control cells | potent suppression of tumor growth | lung tissues from vehicle treated mice had a significantly higher number of proliferating cells, as measured by Ki67 staining, than the BFC1103 treated mice | significantly suppressed the growth of lung metastasis | reduced the viability of a host of cancer cell types including breast cancer ZR-75-1, non-small cell lung cancer H460, melanoma A375, liver cancer HepG2, and prostate cancer LNCaP cells | reduced viability of resistant line preferentially |  |  |  |  |  |  |  |  |  |  |  |  | 
CCOc1ccccc1NC(=O)c1cc(Cl)ccc1NC(=O)c1ccc(OC)cc1 [BFC1108, 5-chloro-N-(2-ethoxyphenyl)-2-[(4-methoxybenzoyl)amino]-benzamide] |  |  |  |  |  | reduced viability of resistant line preferentially | functional conversion of Bcl-2 leading to activation of intrinsic mitochondrial death pathway was validated in vivo | significantly reduced the growth of a xenograft tumor | MCF-7 cells with high-Bcl-2 expression are more sensitive to BFC1108 | only vehicle treated animals showed Ki-67 positivity | suppressed the growth of lung metastasis | reduce viability in a variety of cancer cell types including LNCaP, HepG2, H460, A375 and U251 | increased apoptosis in MDA-MB-231/Bcl-2 cells was observed | absent | fewer colonies | synergistic reduction in cell viability |  |  | 
CN(Cc1cnc2nc(N)nc(N)c2n1)c1ccc(C(=O)N[C@@H](CCC(=O)O)C(=O)O)cc1 [MTX, (2S)-2-[[4-[(2,4 diaminopteridin-6-yl)methylmethylamino]benzoyl]amino] pentanedioc acid] | Bcl-2 dependent effect of MTX was consistent in estrogen receptor (ER) positive MCF-7 cells over-expressing Bcl-2 |  |  |  |  |  | caused a change in conformation of Bcl-2 and induced apoptosis in Bcl-2 over-expressing tumors | significant inhibition of tumor growth |  |  |  |  |  |  |  |  | 30 min | higher apoptosis rate in the presence of the Bcl-2 protein | increased apoptosis in the presence of the Bcl-2 protein
